In paper PMC6986443, “T‐495, a novel low cooperative M1 receptor positive allosteric modulator, improves memory deficits associated with cholinergic dysfunction and is characterized by low gastrointestinal side effect risk” (Pharmacology Research & Perspectives, 2020):
Like-named read-outs stand apart in the source and are kept apart here.

Key:
[1] = test system: SD rats
Description: Seven‐ or 8‐week‐old SD rats were individually placed into observation cages. After an acclimation period of at least 1 hour, a test compound was administered to the rats. […] Cholinergic side effects, including diarrhea, lacrimation, salivation, miosis, and fasciculation, were assessed blindly, as described previously,27 and convulsion was scored using a modified Racine scale,37 as follows: stage 0, normal; stage 1, immobility; stage 2, forelimb and/or tail extension and rigid posture; stage 3, repetitive movements, head nodding, and gnawing; stage 4, rearing and falling; stage 5, continuous rearing and falling; stage 6, severe tonic‐clonic seizure with loss of postural control; and stage 7, death in the first 2 hours.

[2] = test system: IP1 production in the mouse hippocampus; assay: In vivo IP1 assay, mouse hippocampus; conditions: p.o.; 3, 10, 30 mg/kg tested
Description: Eight‐week‐old Long‐Evans rats, 8‐ to 9‐week‐old C57BL/6J mice, and 22‐ or 29‐week‐old M1R KO mice and their WT littermates were used in this study. On the day of the experiment, animals were placed in individual cages and acclimated for more than 1 hour. A test compound or vehicle was administered 2 hours before the animals were sacrificed. […] LiCl (10 mmol/kg, s.c.) was injected 1 hour before sacrifice. In the repeated administration study, a test compound was administered to mice once daily for 13 days; on day 14, animals were treated with a test compound and LiCl (10 mmol/kg, s.c.) and then sacrificed. Animals were killed by decapitation, and blood was collected into tubes containing ethylenediaminetetraacetic acid for pharmacokinetic analysis; brains were quickly dissected, frozen on dry ice, and stored at −80°C until analysis. […] IP1 and protein concentrations in the diluted supernatant were measured using IP‐One HTRF assay kit (Cisbio Bioassays) and BCA Protein Assay Kit (Thermo Fisher Scientific Inc), respectively, according to the manufacturers’ instructions. IP1 production was expressed as the ratio of IP1 to protein concentrations.

[3] = target: T1, human M1R (Homo sapiens, UniProt P11229); assay: Ca2+ mobilization assay, PAM activity (with EC20 ACh), CHO‐K1 cells; assay type: cell-based; parameters: expressed in transfected cells; host or cells: CHO-K1
T1 sequence (P11229 1-460): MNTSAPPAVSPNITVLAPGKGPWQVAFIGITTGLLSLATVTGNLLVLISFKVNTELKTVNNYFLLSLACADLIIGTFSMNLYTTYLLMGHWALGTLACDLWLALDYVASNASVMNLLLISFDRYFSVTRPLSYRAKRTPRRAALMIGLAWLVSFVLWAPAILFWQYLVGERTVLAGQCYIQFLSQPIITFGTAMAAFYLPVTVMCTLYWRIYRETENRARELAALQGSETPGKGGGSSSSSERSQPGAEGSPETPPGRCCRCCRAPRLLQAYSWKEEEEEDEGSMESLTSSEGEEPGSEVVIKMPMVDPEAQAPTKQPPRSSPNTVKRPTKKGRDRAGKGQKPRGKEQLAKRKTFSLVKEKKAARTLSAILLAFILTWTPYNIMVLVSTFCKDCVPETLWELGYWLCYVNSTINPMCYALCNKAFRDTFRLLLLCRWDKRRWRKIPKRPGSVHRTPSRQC
Description: (§1) Chinese hamster ovary (CHO)‐K1 cells expressing M1R–M5R were plated on a 96‐well black, clear bottom plate at 30 000 cells/well and incubated at 37°C in an atmosphere of 5% CO2 for 1 day. On the day of the assay, cells were incubated with calcium dye buffer (Hanks’ Balanced Salt Solution (HBSS) containing 20 mmol/L HEPES, 0.1% fatty acid‐free bovine serum albumin (BSA), 0.08% pluronic F127 (Dojindo Laboratories), 2.5 μg/mL Fluo‐4 (Dojindo Laboratories), and 1.25 mmol/L probenecid (Dojindo Laboratories)) for 30 minutes at 37°C in an atmosphere of 5% CO2 and then incubated for 30 minutes at room temperature. To measure Ca^2+ mobilization using CellLux (PerkinElmer), cells were stimulated with T‐495 or MK‐7622 (0.01‐1000 nmol/L for PAM activity; 0.3‐10 000 nmol/L for agonist activity) in assay buffer (HBSS containing 20 mmol/L HEPES and 0.1% fatty acid‐free BSA) with or without an EC20 concentration of ACh. The inflection point (IP) and EC50 values were calculated using the following equation by GraphPad Prism 5 software (GraphPad Software Inc): Y=Bottom+(Top-Bottom)/1+10^(Log IPorEC50-X×HillSlope))
(§2) where X and Y are the log concentration of a compound and the percentage of Ca^2+ response, respectively, and Top and Bottom are the upper and lower plateaus, respectively.

[4] = test system: human M2R–M5R; assay: as above; assay type: cell-based; conditions: inflection point, EC20 concentration of ACh, read-out: PAM activity IP
Description: as §1, §2

[5] = Concentrations in plasma and brain of wild-type and M1R KO mice; assay type: in vivo; conditions: mouse, po; for concentration at 2 h: mean ± SD; for Kp at 2 h: brain/plasma
Description: Eight‐week‐old Long‐Evans rats, 8‐ to 9‐week‐old C57BL/6J mice, and 22‐ or 29‐week‐old M1R KO mice and their WT littermates were used in this study. On the day of the experiment, animals were placed in individual cages and acclimated for more than 1 hour. A test compound or vehicle was administered 2 hours before the animals were sacrificed. […] LiCl (10 mmol/kg, s.c.) was injected 1 hour before sacrifice. In the repeated administration study, a test compound was administered to mice once daily for 13 days; on day 14, animals were treated with a test compound and LiCl (10 mmol/kg, s.c.) and then sacrificed. Animals were killed by decapitation, and blood was collected into tubes containing ethylenediaminetetraacetic acid for pharmacokinetic analysis; brains were quickly dissected, frozen on dry ice, and stored at −80°C until analysis. Brain tissues were homogenized in 19 (for rat tissues) or 39 (for mouse tissue) volumes of homogenization buffer (10 mmol/L HEPES pH 7.4, 50 mmol/L LiCl, 150 mmol/L NaCl, and 1% Triton X‐100), and the homogenate was incubated on a rotator for 1 hour, followed by centrifugation. The supernatant was diluted with 39 (for rat tissues) or 19 (for mouse tissues) volumes of dilution buffer (10 mmol/L HEPES pH 7.4, 50 mmol/L LiCl, and 150 mmol/L NaCl). IP1 and protein concentrations in the diluted supernatant were measured using IP‐One HTRF assay kit (Cisbio Bioassays) and BCA Protein Assay Kit (Thermo Fisher Scientific Inc), respectively, according to the manufacturers’ instructions. IP1 production was expressed as the ratio of IP1 to protein concentrations.

[6] = target: T1, human M1R; assay: Ca2+ mobilization assay, agonist activity (absence of ACh), CHO‐K1 cells; assay type: cell-based; parameters: expressed in transfected cells; host or cells: CHO-K1; conditions: for margin between PAM and agonist activities: CHO‐K1 cells expressing human M1R
Description: as §1, §2

[7] = rats, 1 mg/kg p.o., observed 15 min to 8 h, rats with effect/total
[8] = rats, 3 mg/kg p.o., observed 15 min to 8 h, rats with effect/total
[9] = rats, 10 mg/kg p.o., observed 15 min to 8 h, rats with effect/total
[10] = rats, 30 mg/kg p.o., observed 15 min to 8 h, rats with effect/total
[11] = rats, 100 mg/kg p.o., observed 15 min to 8 h, rats with effect/total
[12] = rats, T-495 0.3 mg/kg p.o. alone, combination study, rats with effect/total
[13] = rats, donepezil 0.1 mg/kg + T-495 0.3 mg/kg p.o., rats with effect/total

Cc1c(Cc2ccc(Cl)nc2)cc2c(c1Cl)OCN([C@H]1CCC[C@@H]1O)C2=O [T‐495, 8‐chloro‐6‐((6‐chloropyridin‐3‐yl)methyl)‐3‐((1S,2S)‐2‐hydroxycyclopentyl)‐7‐methyl‐2,3‐dihydro‐4H‐1,3‐benzoxazin‐4‐one]
dose difference between memory improvement and induction of cholinergic side effects, including diarrhea ([1]; rats): 100 fold
Convulsion [1, 7]: 0/6
Fasciculation [1, 7]: 0/6
Lacrimation [1, 7]: 0/6
Loose or mucous stool or diarrhea [1, 7]: 0/6
Miosis [1, 7]: 0/6
Salivation [1, 7]: 0/6
Convulsion [1, 8]: 0/6
Fasciculation [1, 8]: 0/6
Lacrimation [1, 8]: 0/6
Loose or mucous stool or diarrhea [1, 8]: 0/6
Miosis [1, 8]: 0/6
Salivation [1, 8]: 0/6
Convulsion [1, 9]: 0/6
Fasciculation [1, 9]: 0/6
Lacrimation [1, 9]: 0/6
Loose or mucous stool or diarrhea [1, 9]: 0/6
Miosis [1, 9]: 0/6
Salivation [1, 9]: 0/6
Convulsion [1, 10]: 0/6
Fasciculation [1, 10]: 0/6
Lacrimation [1, 10]: 0/6
Loose or mucous stool or diarrhea [1, 10]: 0/6
Miosis [1, 10]: 0/6
Salivation [1, 10]: 0/6
Convulsion [1, 11]: 1/6
Fasciculation [1, 11]: 0/6
Lacrimation [1, 11]: 0/6
Loose or mucous stool or diarrhea [1, 11]: 5/6
Miosis [1, 11]: 0/6
Salivation [1, 11]: 1/6
diarrhea score ([1]; rats, 100 mg/kg p.o., vs vehicle): significantly increased
Convulsion [1, 12]: 0/6
Fasciculation [1, 12]: 0/6
Lacrimation [1, 12]: 0/6
Loose, mucous stool, or diarrhea [1, 12]: 0/6
Myosis [1, 12]: 0/6
Salivation [1, 12]: 0/6
cholinergic side effects, combination with donepezil ([1]; rats, T‐495 0.3 mg/kg + donepezil 0.1 mg/kg): no cholinergic side effects were observed
Convulsion [1, 13]: 0/6
Fasciculation [1, 13]: 0/6
Lacrimation [1, 13]: 0/6
Loose, mucous stool, or diarrhea [1, 13]: 0/6
Myosis [1, 13]: 0/6
Salivation [1, 13]: 0/6
cholinergic side effects ([1]; rats, doses up to 30 mg/kg p.o.): did not elicit any cholinergic side effects
minimum effective dose for increase of IP1 production in the mouse hippocampus [2]: 10 mg/kg
EC50 [3]: 2.29 nM
EC50 [4]: > 1000 nM
concentration at 2 h ([5]; brain (hippocampus), 10 mg/kg, M1R KO mice hippocampus, 10 mg/kg p.o., read-out: Brain concentration): 856 ± 78.4 ng/g
concentration at 2 h ([5]; brain (hippocampus), 10 mg/kg, wild-type mice hippocampus, 10 mg/kg p.o., read-out: Brain concentration): 1030 ± 145 ng/g
Kp at 2 h ([5]; 10 mg/kg, M1R KO mice, 10 mg/kg p.o.): 0.55
Kp at 2 h ([5]; 10 mg/kg, wild-type mice, 10 mg/kg p.o.): 0.62 ± 0.1
concentration at 2 h ([5]; plasma, 10 mg/kg, M1R KO mice, 10 mg/kg p.o., n = 10, read-out: Plasma concentration): 1590 ± 266 ng/mL
concentration at 2 h ([5]; plasma, 10 mg/kg, wild-type mice, 10 mg/kg p.o., n = 10, read-out: Plasma concentration): 1690 ± 280 ng/mL
EC50 [6]: 649 nM
margin between PAM and agonist activities [6]: 282 fold

Cc1ccc(Cc2cc3c(=O)n([C@H]4CCCC[C@@H]4O)cnc3c3ccccc23)cn1 [MK‐7622, 3‐((1S,2S)‐2‐hydroxycyclohexyl)‐6‐((6‐methylpyridin‐3‐yl)methyl)benzo[h]quinazolin‐4(3H)‐one, reference compound]
Convulsion ([1]; SD, rat, in vivo, po, 3 mg/kg): 0/6
Fasciculation ([1]; SD, rat, in vivo, po, 3 mg/kg): 0/6
Lacrimation ([1]; SD, rat, in vivo, po, 3 mg/kg): 0/6
Loose or mucous stool or diarrhea ([1]; SD, rat, in vivo, po, 3 mg/kg): 2/6
Miosis ([1]; SD, rat, in vivo, po, 3 mg/kg): 0/6
Salivation ([1]; SD, rat, in vivo, po, 3 mg/kg): 0/6
Convulsion ([1]; SD, rat, in vivo, po, 10 mg/kg): 0/6
Fasciculation ([1]; SD, rat, in vivo, po, 10 mg/kg): 0/6
Lacrimation ([1]; SD, rat, in vivo, po, 10 mg/kg): 0/6
Loose or mucous stool or diarrhea ([1]; SD, rat, in vivo, po, 10 mg/kg): 3/6
Miosis ([1]; SD, rat, in vivo, po, 10 mg/kg): 0/6
Salivation ([1]; SD, rat, in vivo, po, 10 mg/kg): 0/6
Convulsion ([1]; SD, rat, in vivo, po, 30 mg/kg): 0/6
Fasciculation ([1]; SD, rat, in vivo, po, 30 mg/kg): 0/6
Lacrimation ([1]; SD, rat, in vivo, po, 30 mg/kg): 0/6
Loose or mucous stool or diarrhea ([1]; SD, rat, in vivo, po, 30 mg/kg): 6/6
Miosis ([1]; SD, rat, in vivo, po, 30 mg/kg): 0/6
Salivation ([1]; SD, rat, in vivo, po, 30 mg/kg): 0/6
dose difference between memory improvement and induction of cholinergic side effects, including diarrhea ([1]; rat, in vivo): onefold
diarrhea score ([1]; rat, in vivo, po, 3 mg/kg): tended to increase
minimum effective dose for increase of IP1 production in the mouse hippocampus [2]: 10 mg/kg
EC50 [3]: 1.32 nM
EC50 [4]: > 1000 nM
concentration at 2 h ([5]; brain (hippocampus), 20 mg/kg, M1R KO mice hippocampus, 20 mg/kg p.o., read-out: Brain concentration): 456 ± 85.8 ng/g
concentration at 2 h ([5]; brain (hippocampus), 20 mg/kg, wild-type mice hippocampus, 20 mg/kg p.o., read-out: Brain concentration): 582 ± 133 ng/g
Kp at 2 h ([5]; 20 mg/kg, M1R KO mice, 20 mg/kg p.o.): 0.21
Kp at 2 h ([5]; 20 mg/kg, wild-type mice, 20 mg/kg p.o.): 0.26
concentration at 2 h ([5]; plasma, 20 mg/kg, M1R KO mice, 20 mg/kg p.o., n = 10, read-out: Plasma concentration): 2190 ± 312 ng/mL
concentration at 2 h ([5]; plasma, 20 mg/kg, wild-type mice, 20 mg/kg p.o., n = 10, read-out: Plasma concentration): 2240 ± 376 ng/mL
EC50 [6]: 407 nM
margin between PAM and agonist activities [6]: 313 fold
